Measured values as given in publication PMC6927504, “Screening of House Dust from Chinese Homes for Chemicals with Liver X Receptors Binding Activities and Characterization of Atherosclerotic Activity Using an in Vitro Macrophage Cell Line and ApoE^−/− Mice” (Environmental Health Perspectives, 2019).

What was measured:
[1] = Plasma lipids in ApoE−/− mice; assay type: in vivo, mouse; details: 13 weeks, mean±SE
Source text: All experiments related to animals were approved by the institutional animal care and use committee of Peking University and followed the guidelines for animal experiments of the university as well as for experimental animals in China. The biological effect size of the animal experiments was based on the previous paper ([Negro Silva et al. 2017]). C57BL/6 (12 weeks old) and ApoE^−/− mice (12 weeks old) were obtained from the Beijing Vital River Laboratory Animal Technology Company. Mice used in the experiments were acclimated to the housing unit 2 weeks before they were used for experiments, and they were randomly assigned to control or TPHP treatment groups. Five animals were housed to a cage, and mice were acclimatized to the controlled environment (temperature: 22±2°C; relative humidity: 40–60%; artificial lighting: 12 h:12 h light/dark). Mice received diet and drinking water ad libitum. Body weight (BW) was measured every week during the dosing period. Forty-five C57BL/6 mice and 27 ApoE^−/− mice were used in this study. Animal protocol 1: Male C57BL/6 mice (five mice per group) were fed a basic diet (Laboratory Animal Center of the Academy of Military Medical Sciences, China). On Day 0, mice were stimulated with paraffin oil by intraperitoneal injection. From Day 1 to Day 7, mice were exposed to corn oil (control) or TPHP (dissolved in corn oil) at 40 or 200mg/kg BW by daily oral gavage. The volume of the corn oil or TPHP in corn oil administered was 5mL/kg BW. On Day 8, after the mice were anesthetized by sodium pentobarbital via intramuscular injection, peritoneal macrophages were harvested from peritoneal lavage with 4mL pre-warmed DMEM-F12 (containing 10% FBS) using a 25-gauge needle; 5–10 min later, 3–3.5mL peritoneal fluid was collected, and the cells were isolated by centrifuge at 1,000 rpm for 5 min. The isolated cells were cultured in DMEM-F12 containing 10% FBS. After 4 h, the medium was changed, and the cells were cultured overnight. The cells were then used for the qRT-PCR, cellular cholesterol efflux assay, and foam cell formation experiment. The exposure period used in the present study was based on previous studies, in which peritoneal macrophages were harvested from mice treated with chemicals for 4–14 d ([Li et al. 2009]; [Saeed et al. 2012]). Considering that this study assessed the effects of short-term exposure to TPHP, whereas humans are exposed to TPHP over a lifelong period, the present study used exposure doses that were higher than that of human exposure from house dust. Animal protocol 2: Because wild-type mice are highly resistant to atherosclerosis, a well-established atherosclerosis model, the ApoE^−/− mouse, was used in the study. The male ApoE^−/− mice (nine mice per group) were fed a high-fat diet (D12108C; Research Diets Inc.) and exposed to corn oil (control) or TPHP (dissolved in corn oil) at 10 or 40mg/kg BW for 13 weeks by oral gavage. Mice were sacrificed 24 h after the last day of exposure with an overdose of sodium pentobarbital via intraperitoneal injection. Because the formation of atherosclerosis lesions required a long time, the exposure period used in the present study was based on previous studies in which the effects of chemicals on formation of atherosclerosis lesions were observed after an exposure period of 12–15 weeks ([Li et al. 2009]; [Negro Silva et al. 2017]; [Shi et al. 2016]). The doses of TPHP used in the ApoE^−/− model mouse referred to previous studies in which mice were treated with TPHP at 50–300mg/kg BW to observe significant adverse effects, including decreased testosterone levels and hypertriglyceridemia ([Chen et al. 2015]; [Morris et al. 2014]).
Treated ApoE^−/− mice ( n=9 per group) were fasted overnight, and heart puncture was used to collect the blood soon after each animal was sacrificed. The blood samples were then centrifuged ( 1,000×g , 10 min, 4°C) to separate the plasma, and the plasma was stored at −80°C . […]

[2] = Body weight of ApoE−/− mice; assay type: in vivo, mouse; details: 10 and 40 mg/kg BW, 13 weeks
Source text: All experiments related to animals were approved by the institutional animal care and use committee of Peking University and followed the guidelines for animal experiments of the university as well as for experimental animals in China. The biological effect size of the animal experiments was based on the previous paper ([Negro Silva et al. 2017]). C57BL/6 (12 weeks old) and ApoE^−/− mice (12 weeks old) were obtained from the Beijing Vital River Laboratory Animal Technology Company. Mice used in the experiments were acclimated to the housing unit 2 weeks before they were used for experiments, and they were randomly assigned to control or TPHP treatment groups. Five animals were housed to a cage, and mice were acclimatized to the controlled environment (temperature: 22±2°C; relative humidity: 40–60%; artificial lighting: 12 h:12 h light/dark). Mice received diet and drinking water ad libitum. Body weight (BW) was measured every week during the dosing period. Forty-five C57BL/6 mice and 27 ApoE^−/− mice were used in this study. […] Considering that this study assessed the effects of short-term exposure to TPHP, whereas humans are exposed to TPHP over a lifelong period, the present study used exposure doses that were higher than that of human exposure from house dust. […]

human LXRβ = biological target: T1, human LXRβ (Homo sapiens, UniProt P55055); test: Yeast two-hybrid assay (LXRβ LBD with coactivator TIF2, β-galactosidase readout)
T1 sequence (P55055 219-460): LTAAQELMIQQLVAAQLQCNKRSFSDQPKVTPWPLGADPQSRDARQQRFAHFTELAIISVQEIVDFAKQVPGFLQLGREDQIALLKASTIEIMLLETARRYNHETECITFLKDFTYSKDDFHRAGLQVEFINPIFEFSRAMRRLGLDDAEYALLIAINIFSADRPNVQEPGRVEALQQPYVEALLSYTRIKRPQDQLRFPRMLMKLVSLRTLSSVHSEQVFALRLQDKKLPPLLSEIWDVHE

[3] = 40mg/kg, n=9, p<0.05 vs control

O=P(Oc1ccccc1)(Oc1ccccc1)Oc1ccccc1 [TPHP, triphenyl phosphate]
Plasma HDL-C ([1]; 10mg/kg, n=9): 1.13 ± 0.05 mmol/L
Plasma LDL-C ([1]; 10mg/kg, n=9): 10.53 ± 0.32 mmol/L
Plasma cholesterol ([1]; 10mg/kg, n=9): 26.15 ± 1.34 mmol/L
Plasma triglycerides ([1]; 10mg/kg, n=9): 0.92 ± 0.06 mmol/L
Plasma HDL-C ([1]; 40mg/kg, n=9): 1.29 ± 0.05 mmol/L
Plasma LDL-C ([1]; 40mg/kg, n=9): 10.27 ± 0.22 mmol/L
Plasma cholesterol [1, 3]: 28.83 ± 1.90 mmol/L
Plasma triglycerides [1, 3]: 1.06 ± 0.12 mmol/L
Body weight versus control [2]: No significant differences
Contribution to the LXRβ-antagonist activity of SRM2585 (human LXRβ; dust standard reference material SRM2585): 12.68%
Share of the LXRβ-antagonist activity of indoor dust explained by the chemical (human LXRβ; range over indoor dust samples (Table S4)): 0.37–32.60%
